{
  "source": "a melting point compilation (Tetko et al.; mined from patent text by program, amines drawn as free bases though some values may be those of a salt)",
  "data": [
    {"units": {"melting point": "°C"}, "values": [
      {"compound": "N#CC(C(=O)NC1CCC1)C(=O)C1CC1", "note": "(configuration not stated)", "melting point": "110 to 111"},
      {"compound": "Oc1cccc(-c2nc3cccc(CBr)c3o2)c1", "melting point": "225 to 228"},
      {"compound": "O=C(NO)c1ccc(CNC(=O)c2[nH]c(-c3cccs3)cc2-c2ccc(F)cc2)cc1", "melting point": "214 to 216"},
      {"compound": "CCCOC(=O)Nc1ccc(NCc2cc(Cl)cc(Cl)c2)cc1N", "melting point": "154 to 155"},
      {"compound": "COc1c(Cl)ccc(-c2cc(N)c(Cl)c(C(=O)NOCc3ccccc3)n2)c1F", "melting point": "166 to 169"},
      {"compound": "O=C1O[C@H](C(Cl)(Cl)Cl)N2CCC[C@@]12Cc1ccccc1", "melting point": "75 to 77"},
      {"compound": "O=C(O)Cc1ccc(C(NC(=O)c2ccccc2)C(=O)O)cc1", "note": "(configuration not stated)", "melting point": "180 to 220"},
      {"compound": "NCC(=O)Nc1ccc(Br)cc1C(=NCCO)c1ccccc1F", "melting point": "167 to 168"},
      {"compound": "Cc1ccc2nc(C3(c4ccc(S(N)(=O)=O)cc4)C=C(C(F)(F)C(F)(F)F)NN3)sc2c1", "note": "(configuration not stated)", "melting point": "234 to 235"},
      {"compound": "CC(C)=CCn1nc(C(=O)c2cccc(O)c2)c2ccccc21", "melting point": "92 to 94"},
      {"compound": "CCCCC(C(=O)OC)(C(=O)OC)c1nc(C)nc2c1c(SC)nn2-c1c(Cl)cc(Cl)cc1Cl", "melting point": "146 to 152"},
      {"compound": "O=C(O)c1cccc(-c2ccc3c(c2)C(Nc2ccc(Cl)cc2Cl)CO3)c1", "note": "(configuration not stated)", "melting point": "164 to 165"},
      {"compound": "OCCc1nccn1Cc1coc(-c2ccc(OCc3coc(/C=C/c4ccc(Cl)cc4F)n3)cc2)n1", "melting point": "170 to 172"},
      {"compound": "COc1cc2nc(C)nc(Cl)c2cc1OCCCN1CCOCC1", "melting point": "116 to 118"},
      {"compound": "COc1ccc(N(C(C)=O)C2=NN(c3ccc([N+](=O)[O-])cc3)C(=O)C2Br)cc1", "note": "(configuration not stated)", "melting point": "163 to 164"},
      {"compound": "COc1cc2ncc(C#N)c(Nc3ccc(F)cc3)c2cc1OC", "melting point": "282 to 285"},
      {"compound": "COc1ccc2c(ccn2-c2cccc(C#N)c2)c1", "melting point": "113 to 115"},
      {"compound": "COc1cc(OC)c(-c2cc3ccccc3s2)cc1C=CC(=O)c1cc(OC)c(OC)c(OC)c1", "melting point": "194 to 196"},
      {"compound": "CCNC(=O)[C@@H](C[C@H](O)[C@H](CC1CCCCC1)NC(=O)OC(C)(C)C)C(C)(C)O", "melting point": "155 to 157"},
      {"compound": "CCn1cc(C(=O)O)c(=O)c2cc(N)c(-c3cc(C)nc(C)c3)cc21", "melting point": "288 to 290"},
      {"compound": "COc1cc(F)ccc1-c1ccnc(NC(=O)[C@H]2CC[C@@H](NC(C)=O)C2)c1", "melting point": "125 to 129"},
      {"compound": "Cc1ccc2[nH]c3c(cc(-c4cccc(Nc5ccccn5)c4)c(=O)n3C)c2c1", "melting point": "250 to 252"},
      {"compound": "CCCCNc1ccc(-c2nc(C(=O)Nc3nccs3)c(-c3cccc(OC)c3)[nH]2)cc1", "melting point": "228 to 231"},
      {"compound": "CN(Cc1cc2c(=O)c(C(=O)NCc3ccc(Cl)cc3)cn(C)c2o1)CC(O)c1cc2ccccc2o1", "note": "(configuration not stated)", "melting point": "176 to 179"},
      {"compound": "Oc1ccc(C2CC2(Cl)Cl)cc1", "note": "(configuration not stated)", "melting point": "54.5 to 56"},
      {"compound": "COc1cc(Nc2nsc(-c3ccccc3)n2)ccc1-c1cnco1", "melting point": "260 to 261"},
      {"compound": "COc1ccccc1-n1c(-c2cc(-c3ccncc3)c(N3CCOCC3)s2)nc2ccccc2c1=O", "melting point": "204 to 205"},
      {"compound": "O=C1C(=O)c2ccccc2C2=C1SCC(CN1CCC(CO)CC1)O2", "note": "(configuration not stated)", "melting point": "200 to 202"},
      {"compound": "CC(C)C(S)C(=O)NCC(=O)O", "note": "(configuration not stated)", "melting point": "118 to 119"},
      {"compound": "COC(=O)C(Cc1cccc(-c2nc(=O)c3ccccc3s2)c1)NC(=O)c1ccccc1", "note": "(configuration not stated)", "melting point": 131},
      {"compound": "COC(=O)c1nc(-c2ccccc2)ccc1Oc1nc(OC)cc(OC)n1", "melting point": "92 to 94"},
      {"compound": "S=C(N=c1ccn(-c2ccccc2)nc1)Nc1ccccc1", "melting point": "171 to 173"},
      {"compound": "O=C(Nc1ccc(CCc2nnn[nH]2)cc1)C(F)(F)C(F)(F)C(F)(F)F", "melting point": "161 to 162"},
      {"compound": "CCCC12CCC(=O)C=C1c1c(cc(CC(=O)O)c(Cl)c1Cl)C2", "note": "(configuration not stated)", "melting point": "206 to 208"},
      {"compound": "COC(=O)c1cc(C(=O)c2c(C)c(NC(=O)c3cccc(OC(C)=O)c3)c3ccccn23)ccc1N", "melting point": 210},
      {"compound": "COc1cc(C=C2NC(=O)NC2=O)cc(OC)c1", "melting point": "285 to 287"},
      {"compound": "CC(=O)C1CCC2C3CCC4=CC(=O)C=CC4(C)C3C=CC12C", "note": "(configuration not stated)", "melting point": "167 to 169"},
      {"compound": "CNC1CCN(c2nc3ccccc3n2Cc2ccc(C#N)cc2)CC1", "melting point": 133},
      {"compound": "CN1C(=O)CN=C(c2ccccc2)c2ccccc21", "melting point": "151 to 154"},
      {"compound": "CCOC1c2ccccc2-c2nccnc21", "note": "(configuration not stated)", "melting point": "> 300"},
      {"compound": "COc1cccc(C2=C(C(=O)c3ccc(O)cc3)c3ccc(OC)cc3CC2)c1", "melting point": "197 to 198"},
      {"compound": "O=C(O)CN(CC(=O)O)c1nc(N(CC(=O)O)CC(=O)O)nc(N(CC(=O)O)CC(=O)O)n1", "melting point": "246 to 249"},
      {"compound": "CCCCCCCCCCCCOc1c(OC)cc(N)c2nccc(C)c12", "melting point": "53 to 55"},
      {"compound": "Cn1c(CO)nc2c(N)cc(Br)cc21", "melting point": "216 to 218"},
      {"compound": "CC=CCNc1ccc(Oc2nc(OC)cc(OC)n2)c(C(=O)OC)n1", "melting point": "82 to 85"},
      {"compound": "CCC(=O)c1cc2ccccc2cc1C(=O)O", "melting point": 147},
      {"compound": "CCOCCOc1ccc(-c2nc(=O)c3ccccc3s2)cn1", "melting point": "93.6 to 94.9"},
      {"compound": "O=c1ccc2nc3ccccc3sc-2c1", "melting point": "157 to 159"},
      {"compound": "O=CN1C2CCC1CC(Oc1ccc(Cl)cn1)C2", "note": "(configuration not stated)", "melting point": "112 to 114"},
      {"compound": "CC(=O)Nc1ccc(-c2cc3[nH]c(=O)[nH]c3nc2C)cc1", "melting point": "> 300"},
      {"compound": "C(=Cc1ccc(-c2cc3c(ccc4oc5ccccc5c43)o2)cc1)c1ccccc1", "melting point": "239 to 241"},
      {"compound": "CC(C)(C)OC(=O)N[C@@H]1CCC[C@@H]1O", "note": "(relative stereo)", "melting point": "64 to 65"},
      {"compound": "Cc1nc[nH]c1C(=O)Nc1ccc(-n2nc(C3CC3)cc2C(F)(F)F)cc1", "melting point": "245 to 250"},
      {"compound": "Cn1ccc2c(N3CCN(CC4CCc5ccccc5N4C(=O)C4CCCCC4)CC3)cccc21", "note": "(configuration not stated)", "melting point": "66 to 70"},
      {"compound": "OCCOCn1cc(I)c2c(Cl)ncnc21", "melting point": "154 to 155"},
      {"compound": "NC1=CC(=O)CC(c2cccc(Cl)c2Cl)C1", "note": "(configuration not stated)", "melting point": "209 to 210"},
      {"compound": "Cc1noc(C)c1NCC#CI", "melting point": "139 to 140"},
      {"compound": "COc1cccc2c1CCC(C#N)=C2", "melting point": "47 to 49"},
      {"compound": "CCCCCCCCCCCCCOc1ccc(CNc2ccc(C(=O)O)cc2)cc1", "melting point": "110 to 113"},
      {"compound": "CC(C)N1CCN(c2ccc([N+](=O)[O-])cc2)C(=O)C1", "melting point": "87 to 90"},
      {"compound": "CCCC(=O)c1cnc2c(OC)cccc2c1Nc1ccc(OC(=O)C(C)C)cc1C", "melting point": "123 to 125"},
      {"compound": "Clc1ccc(-c2nn(-c3ccc(Br)cc3)cc2CCc2nnn[nH]2)cc1", "melting point": "164 to 166"},
      {"compound": "CCC(C)(C)Nc1c(NCc2cc3cc(C#N)ccc3o2)c(=O)c1=O", "melting point": "171 to 173"},
      {"compound": "COC(=O)c1cccc(-c2cccc([N+](=O)[O-])c2)c1", "melting point": "88 to 89"},
      {"compound": "N=C(NO)c1ccc2c(c1)COC(N[C@@H]1CCc3ccccc31)=N2", "melting point": 206},
      {"compound": "O=C(c1ccc(Br)cc1Cl)N1Cc2cccn2Cc2ccccc21", "melting point": "77 to 80"},
      {"compound": "O=c1cc(Oc2ccc([N+](=O)[O-])cc2)cc[nH]1", "melting point": "227 to 228"},
      {"compound": "CC(Oc1cccc2c1C(=O)N(C1CCC(=O)NC1=O)C2=O)c1ccc2ccccc2c1", "note": "(configuration not stated)", "melting point": "174 to 176"},
      {"compound": "Nc1c(Cl)nc2ccccc2c1NCc1cc(-c2ccc(F)cc2)no1", "melting point": "127 to 128"},
      {"compound": "OC1CSC(Oc2cccc(-c3cc(Cl)ccn3)c2)C(O)C1O", "note": "(configuration not stated)", "melting point": "97 to 105"},
      {"compound": "CCCCn1cnnc1S", "melting point": "67 to 69"},
      {"compound": "CON(C)C(=O)Cc1cc(Oc2ccc(C(F)(F)F)cc2Cl)ccc1[N+](=O)[O-]", "melting point": "134 to 135"}
    ]}
  ]
}
